Laboratory results reported in paper PMC7466159, “Anti-Metastasis Fascin Inhibitors Decrease the Growth of Specific Subtypes of Cancers” (Cancers, 2020).

Columns and labels:
MDA-MB-468 tumor cells = assay: MDA-MB-468 breast cancer model in NSG mice (tumor growth, overall survival); assay type: in vivo; conditions: treatment from Day 14, compared with the control group
Protocol: MDA-MB-468 cells and HCC38 cells grew in the presence of EGF with or without NP-G2-044. […] Finally, we used the animal model to investigate whether the primary tumor growth of MDA-MB-468 cells was sensitive to fascin inhibitors. MDA-MB-468 tumor cells were implanted into the mammary gland of NSG mice, and these mice were randomly divided into four groups. One group of mice was used as control (Figure 6I). The second group of mice was treated with the fascin inhibitor NP-G2-044 (Figure 6I). The third group was treated with the EGFR inhibitor gefitnib (Figure 6I), and the fourth group was treated with the combination of NP-G2-044 + gefitinib (Figure 6I). […] We dissected the primary tumor tissues 55 days after the tumor implantation from some mice. […] Furthermore, the overall survival of the mice was analyzed (Figure 6K).
For the breast cancer model, MDA-MB-468 cells (5 × 10^6) suspended in PBS-matrigel (v/v, 1:1) were injected subcutaneously into the abdominal mammary gland area of female NSG mice on Day 0 as previously described. Starting on Day 14, NP-G2-044 was given once a day for 5 days every week by gavage at 300 mg kg^−1 per mouse until their death. Starting on Day 14, gefitinib was given twice weekly by gavage at 150 mg kg^−1 per mouse until their death. The control solvent was given once a day for 5 days every week by gavage according to their body weight until their death. […] The primary tumor volume was calculated as length × width^2 ×π/6.

[1] = test system: MDA-MB-468 triple-negative breast cancer cells; assay: Cell growth assay, MDA-MB-468; assay type: cell-based; conditions: MDA-MB-468 cells in culture, 10% serum
[2] = test system: BT-20 triple-negative breast cancer cells; assay: Cell growth assay, BT-20; assay type: cell-based; conditions: BT-20 cells in culture, 10% serum
[3] = test system: HCC38 triple-negative breast cancer cells; assay: Cell growth assay, HCC38; assay type: cell-based; conditions: HCC38 cells in culture, 10% serum

**Q.** For COc1cc2ncnc(Nc3ccc(F)c(Cl)c3)c2cc1OCCCN1CCOCC1 [gefitinib, reference compound], which “growth of primary tumors” value (MDA-MB-468 tumor cells) is on record?
**A.** The value was “reduced the growth of primary tumors to the same degree”.

**Q.** What about the “increase of median overall survival” value (MDA-MB-468 tumor cells) of the same compound?
**A.** Its value is ~ 50%.

**Q.** What about the growth sensitivity [1] of the same compound?
**A.** The growth sensitivity was “sensitive”.

**Q.** What about the growth sensitivity [2] of the same compound?
**A.** The growth sensitivity was “sensitive”.

**Q.** And the growth sensitivity [3]?
**A.** Its growth sensitivity is “sensitive”.
